Source: article PMC3663535, “Substrate Selectivity of the Acid-activated Glutamate/γ-Aminobutyric acid (GABA) Antiporter GadC from Escherichia coli” (The Journal of Biological Chemistry, 2013)

Biological target: T1, WT GadC (Escherichia coli, UniProt P63235)
T1 construct: full-length wild type; hexahistidine tag proteolytically removed; recombinant, reconstituted in E. coli polar lipid proteoliposomes
Experiment: proteoliposome Gln/GABA exchange with membrane potential
Assay type: biochemical
Details: 5 mM internal GABA, efflux followed through influx of 50 μM external [3H]Gln; pH 5.5

T1 sequence (P63235 whole entry): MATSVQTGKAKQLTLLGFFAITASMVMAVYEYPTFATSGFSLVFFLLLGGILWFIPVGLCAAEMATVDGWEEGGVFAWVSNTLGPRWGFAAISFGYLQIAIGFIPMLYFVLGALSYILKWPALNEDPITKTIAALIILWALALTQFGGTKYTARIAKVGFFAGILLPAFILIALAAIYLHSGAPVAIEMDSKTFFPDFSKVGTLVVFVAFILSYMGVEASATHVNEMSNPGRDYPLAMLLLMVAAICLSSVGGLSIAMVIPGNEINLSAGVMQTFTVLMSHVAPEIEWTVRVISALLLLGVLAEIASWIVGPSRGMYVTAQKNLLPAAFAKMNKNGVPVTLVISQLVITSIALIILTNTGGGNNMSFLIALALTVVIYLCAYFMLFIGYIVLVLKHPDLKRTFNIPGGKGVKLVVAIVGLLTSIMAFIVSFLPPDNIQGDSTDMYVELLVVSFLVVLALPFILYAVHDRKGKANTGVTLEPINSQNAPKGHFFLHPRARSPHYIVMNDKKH

Q: How did the “proteoliposome Gln/GABA exchange with membrane potential” value turn out when NCCCC(=O)O [GABA] was run?
A: confirm our prediction that GABA^+ is the transport substrate for GadC
